Residues, ends and D or L forms follow the SMILES beside them. *: point of attachment. Myristoyl = CCCCCCCCCCCCCC(=O)*
Tests used:
[1] = target: T1, cGMP-dependent protein kinase (PKG) (Homo sapiens, UniProt Q13976); experiment: PKG activity in NHBE cells; type: cell-based; settings: 100 μM
T1 construct: endogenous in cells; host or cells: NHBE cells
T1 sequence (Q13976 1-671): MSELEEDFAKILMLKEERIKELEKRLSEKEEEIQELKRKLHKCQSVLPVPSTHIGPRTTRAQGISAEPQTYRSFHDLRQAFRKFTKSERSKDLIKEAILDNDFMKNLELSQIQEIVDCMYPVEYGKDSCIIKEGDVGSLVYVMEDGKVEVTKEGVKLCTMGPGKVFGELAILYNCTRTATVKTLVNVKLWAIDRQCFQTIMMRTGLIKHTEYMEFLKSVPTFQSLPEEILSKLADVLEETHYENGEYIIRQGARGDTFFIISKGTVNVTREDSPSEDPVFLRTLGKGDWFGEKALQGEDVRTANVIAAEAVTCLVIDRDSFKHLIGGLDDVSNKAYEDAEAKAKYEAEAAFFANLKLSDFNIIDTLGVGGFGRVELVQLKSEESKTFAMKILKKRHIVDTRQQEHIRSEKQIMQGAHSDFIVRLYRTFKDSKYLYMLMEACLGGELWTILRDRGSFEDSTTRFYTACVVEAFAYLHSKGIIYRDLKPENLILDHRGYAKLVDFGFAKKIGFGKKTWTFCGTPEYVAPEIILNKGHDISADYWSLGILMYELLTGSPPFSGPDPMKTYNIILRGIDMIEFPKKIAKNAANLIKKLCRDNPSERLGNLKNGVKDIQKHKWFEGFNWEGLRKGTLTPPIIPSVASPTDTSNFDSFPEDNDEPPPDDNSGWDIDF
Procedure: Phosphorylation of MARCKS by PMA was attenuated by Calphostin C (500 nM). NHBE cells also contained substantial amounts of cGMP-dependent protein kinase type 1α (PKG-1α) activity, which was localized to the cytosolic fraction. […] In addition, the phosphorylation of MARCKS induced by PMA was reversed by incubation with 8-Br-cGMP (10 μM).

[2] = test system: NHBE cells; experiment: PMA+8-Br-cGMP-induced mucin secretion from NHBE cells (ELISA); type: cell-based, human; settings: pre- and co-incubation with 100 nM PMA+1 μM 8-Br-cGMP (Results-M-1A/M-3A)
Procedure: Peptide Blocking Studies—NHBE cells were preincubated with either the MANS or the RNS peptide (1-100 μM) for 15 min, and then PMA (100 nM)+8-Br-cGMP (1 μM) or UTP (100 μM) was added, and cells were incubated for an additional 15 min or 2 h. respectively. Mucin secretion was measured by ELISA and experimental results are designated as Results-I-2B-1 and Results-I-2B-2, as follows. […]
Measurement of Mucin Secretion by ELISA—Before collection of “base line” and “test” mucin samples, the accumulated mucus at the apical surface of the cells was removed by washing with phosphate-buffered saline, pH 7.2. To collect the base-line secretion, cells were incubated with medium alone, and secreted mucin in the apical medium was collected and reserved. Cells were rested for 24 h and then exposed to medium containing the selected stimulatory and/or inhibitory reagents (or appropriate controls), after which secreted mucin was collected and reserved as the test sample. Incubation times for the base line and the test were the same but varied depending on the test reagent utilized. Both base line and test secretions were analyzed by ELISA using an antibody capture method as known in the art. See, e.g., Harlow et al., Antibodies: A Laboratory Manual, pp. 570-573, Cold Spring Harbor Laboratory, Cold Spring Harbor, N.Y. (1988). The primary antibody for this assay was 17Q2 (Babco, Richmond, Calif.), a monoclonal antibody that reacts specifically with a carbohydrate epitope on human airway mucins. The ratio of test/base-line mucin, which is similar to a “secretory index”, was used to quantify mucin secretion, allowing each culture dish to serve as its own control and thus, minimizing deviation caused by variability among culture wells. Wright et al., Am. J. Physiol. 271, L854-L861 (1996). Levels of mucin secretion were reported as percentage of the medium control.
MARCKS-related Peptides—Both the myristoylated N-terminal sequence (MANS) and the random N-terminal sequence (RNS) peptides were synthesized at Genemed Synthesis, Inc. (San Francisco, Calif.), then purified by high pressure liquid chromatography (>95% pure), and confirmed by mass spectroscopy with each showing one single peak with an appropriate molecular mass. The MANS peptide consisted of sequence identical to the first 24 amino acids of MARCKS, i.e. the myristoylated N-terminal region that mediates MARCKS insertion into membranes, MA-[…] (SEQ ID NO: 1) (where MA=N-terminal myristate chain). The corresponding control peptide (RNS) contained the same amino acid composition as the MANS but arranged in random order, MA-[…] (SEQ ID NO: 26). The presence of the hydrophobic myristate moiety in these synthetic peptides enhances their permeability to the plasma membranes, enabling the peptides to be taken up readily by cells. To determine the effects of these peptides on mucin secretion, cells were preincubated with the peptides for 15 min prior to addition of secretagogues, and mucin secretion was then measured by ELISA.
Antisense Oligonucleotides—MARCKS antisense oligonucleotide and its corresponding control oligonucleotide were synthesized at Biognostik GmbH (Gottingen, Germany). NHBE cells were treated with 5 μM antisense or control oligonucleotide apically for 3 days (in the presence of 2 μg/ml lipofectin for the first 24 h). Cells were then incubated with secretagogues, and mucin secretion was measured by ELISA. Total RNA and protein were isolated from treated cells. MARCKS mRNA was assessed by Northern hybridization according to conventional procedures using human MARCKS cDNA as a probe. MARCKS protein level was determined by Western blot using purified anti-MARCKS IgG1 (clone 2F12) as the primary detection antibody.
The effect on mucus secretion of a myristoylated peptide containing the first 24 amino acids of the human MARCKS protein (MANS; myristoylated N-terminal sequence; SEQ ID NO: ) was tested. Cultured normal human bronchial epithelial cells as described above were used. […]

[3] = test system: human bronchial epithelial cells; experiment: Basal (constitutive) mucin secretion by human bronchial epithelial cells; type: cell-based; settings: one hour incubation
Procedure: Mucus secreted from the airway epithelial cells in vitro after stimulation by activators was assessed using an ELISA (antibody capture method) (E. Harlow, D. Lane. “Antibodies: A Laboratory Manual.” New York: Cold Spring Harbor Laboratory Press, 1988), wherein the collected mucus is bound directly to the ELISA plate. Mucus was detected using an antibody raised against monkey airway mucus (Lin et al. Am J Respir Cell Mol Biol 1:41, 1989).
The MANS peptide (100 μM) was also found to decrease constitutive (basal) mucus secretion by one hour incubation. Cells were treated as described above except that no PMA or 8-Br-cGMP was used. […] Results, designated as Results-M-1B, are presented as follows and show the inhibition of basal mucin secretion by human bronchial epithelial cells exposed to the MANS peptide (SEQ ID NO: 1) or a negative control peptide consisting of the same amino acids as the MANS peptide, but in random order (RNS peptide; random N-terminal sequence (SEQ ID NO: 26):
The effect of MA-PSD peptide (1, 10 and 100 μM) on basal mucin secretion was also measured. Cells as described above were incubated for one hour with the MA-PSD peptide (no PMA or 8-Br-cGMP).

PKG activity [1] | SMILES | Mucin secretion level relative to media control ([2]; peptide 1 μM) | Mucin secretion level relative to media control ([2]; peptide 10 μM) | Mucin secretion level relative to media control ([2]; peptide 100 μM) | Basal mucin secretion level relative to control ([3]; peptide 1 μM) | Basal mucin secretion level relative to control ([3]; peptide 10 μM) | Basal mucin secretion level relative to control ([3]; peptide 100 μM, no PMA or 8-Br-cGMP)
increased | CCCC(=O)Nc1nc2c(ncn2[C@@H]2O[C@@H]3COP(=O)(O)O[C@H]3[C@H]2OC(=O)CCC)c(=O)[nH]1 [dibutryl cGMP] |  |  |  |  |  | 
 | CCCCCCCCCCCCCC(=O)N[C@@H](CCCCN)C(=O)N[C@@H](CCCCN)C(=O)N[C@@H](CCCCN)C(=O)N[C@@H](CCCCN)C(=O)N[C@@H](CCCCN)C(=O)N[C@@H](CCCNC(=N)N)C(=O)N[C@@H](Cc1ccccc1)C(=O)N[C@@H](CO)C(=O)N[C@@H](Cc1ccccc1)C(=O)N[C@@H](CCCCN)C(=O)N[C@@H](CCCCN)C(=O)N[C@@H](CO)C(=O)N[C@@H](Cc1ccccc1)C(=O)N[C@@H](CCCCN)C(=O)N[C@@H](CC(C)C)C(=O)N[C@@H](CO)C(=O)NCC(=O)N[C@@H](Cc1ccccc1)C(=O)N[C@@H](CO)C(=O)N[C@@H](Cc1ccccc1)C(=O)N[C@@H](CCCCN)C(=O)N[C@@H](CCCCN)C(=O)N[C@@H](CC(N)=O)C(=O)N[C@@H](CCCCN)C(=O)N[C@@H](CCCCN)C(=O)O [MA-PSD peptide] (Myristoyl-KKKKKRFSFKKSFKLSGFSFKKNKK-OH; C-terminus assumed) | 226% | 316% | 191% | 102% | 91% | 285%
